Test results from ChEMBL document CHEMBL4680289, “10-(4-Phenylpiperazine-1-carbonyl)acridin-9(10H)-ones and related compounds: Synthesis, antiproliferative activity and inhibition of tubulin polymerization” (Bioorg Med Chem Lett, 2021).
Active and inactive are the calls of the source. No cut-off for these calls is given here.

What was measured:
K562 [1] = assay: Antiproliferative activity against human K562 cells assessed as cell growth inhibition measured after 48 hrs by MTT assay; assay type: functional, cell-based; conditions: K562, 48 h
[2] = Inhibition of porcine brain tubulin polymerization assessed as reduction in tubulin assembly at 37 degreeC measured after 40 mins in presence of GTP by turbidimetric analysis; parameters: species or system Sus scrofa
[3] = target: T1, Tubulin beta (Homo sapiens) (UniProt P68371+Q9H4B7+Q13509+P04350+Q3ZCM7+P07437+Q13885+Q9BVA1+Q9BUF5+A6NNZ2); assay: Inhibition of N,N'-Ethylenebis(iodoacetamide) binding to beta-tubulin colchicine binding site in human K562 cells assessed as reduction in EBI/beta-tubulin adduct formation at 1 to 10 uM preincubated for 2.5 hrs followed by EBI addition and measured after 1.5 hrs by Western blot analysis; assay type: cell-based; conditions: dose 1-10 µM, time 4.0 hrs
K562 [4] = assay: Cell cycle arrest in human K562 cells assessed as increase in cell accumulation at G2/M phase at < 30 nM measured after 18 hrs by propidium iodide/RNase FACSCalibur staining based flow cytometry; assay type: functional; conditions: dose nM <30, time 18.0 hrs
K562 [5] = assay: Cell cycle arrest in human K562 cells assessed as increase in cell accumulation at G2/M phase measured after 18 hrs by propidium iodide/RNase FACSCalibur staining based flow cytometry; assay type: functional; conditions: dose 0.003-1 µmol/L
SK-N-AS = assay: Antiproliferative activity against human SK-N-AS cells assessed as cell growth inhibition measured after 72 hrs by sulforhodamine B assay; assay type: functional
[6] = Cytotoxicity against human IMR-90 cells assessed as cell growth inhibition measured after 72 hrs by sulforhodamine B assay; assay type: cell-based
BXPC-3 = assay: Antiproliferative activity against human BXPC-3 cells assessed as cell growth inhibition measured after 72 hrs by sulforhodamine B assay; assay type: functional
MG-63 = assay: Antiproliferative activity against human MG-63 cells assessed as cell growth inhibition measured after 72 hrs by sulforhodamine B assay; assay type: functional
HT-1080 = assay: Antiproliferative activity against human HT-1080 cells assessed as cell growth inhibition measured after 72 hrs by sulforhodamine B assay; assay type: functional
5637 = assay: Antiproliferative activity against human 5637 cells assessed as cell growth inhibition measured after 72 hrs by sulforhodamine B assay; assay type: functional
HT-29 = assay: Antiproliferative activity against human HT-29 cells assessed as cell growth inhibition measured after 72 hrs by sulforhodamine B assay; assay type: functional
PANC-1 = assay: Antiproliferative activity against human PANC-1 cells assessed as cell growth inhibition measured after 72 hrs by sulforhodamine B assay; assay type: functional
[7] = Antiproliferative activity against human RDES cells assessed as cell growth inhibition measured after 72 hrs by sulforhodamine B assay; assay type: functional; conditions: RD-ES
Ramos = assay: Antiproliferative activity against human Ramos cells assessed as cell growth inhibition measured after 72 hrs by sulforhodamine B assay; assay type: functional
DU-145 = assay: Antiproliferative activity against human DU-145 cells assessed as cell growth inhibition measured after 72 hrs by sulforhodamine B assay; assay type: functional
L-363 = assay: Antiproliferative activity against human L-363 cells assessed as cell growth inhibition measured after 72 hrs by sulforhodamine B assay; assay type: functional
MV4-11 = assay: Antiproliferative activity against human MV4-11 cells assessed as cell growth inhibition measured after 72 hrs by sulforhodamine B assay; assay type: functional
NCI-H460 = assay: Antiproliferative activity against human NCI-H460 cells assessed as cell growth inhibition measured after 72 hrs by sulforhodamine B assay; assay type: functional
SNB-75 = assay: Antiproliferative activity against human SNB-75 cells assessed as cell growth inhibition measured after 72 hrs by sulforhodamine B assay; assay type: functional
Ca-Ski = assay: Antiproliferative activity against human Ca-Ski cells assessed as cell growth inhibition measured after 72 hrs by sulforhodamine B assay; assay type: functional
[8] = Cytotoxicity against human PBMC cells assessed as cell growth inhibition measured after 72 hrs by sulforhodamine B assay; assay type: cell-based
[9] = target: T1, Tubulin beta (Homo sapiens); assay: Inhibition of N,N'-Ethylenebis(iodoacetamide) binding to beta-tubulin colchicine binding site in human K562 cells assessed as reduction in EBI/beta-tubulin adduct formation preincubated for 2.5 hrs followed by EBI addition and measured after 1.5 hrs by Western blot analysis relative to control; assay type: cell-based; conditions: time 4.0 hrs, concentration not given here
K562 [10] = assay: Induction of apoptosis in human K562 cells at 3 uM measured after 48 hrs by Annexin V-FITC/7-AAD staining based flow cytometric analysis; assay type: functional, cell-based
K562 [11] = assay: Induction of apoptosis in human K562 cells at 30 nM measured after 48 hrs by Annexin V-FITC/7-AAD staining based flow cytometric analysis; assay type: functional, cell-based

Row | Compound | IC50 (K562 [1]) | IC50 [2] | also measured
1 | COc1cccc(C(=O)n2c3ccccc3c(=O)c3ccccc32)c1 | > 10 µM | > 10 µM | –
2 | O=C(N1CCN(c2cccc(F)c2)CC1)n1c2ccccc2c(=O)c2ccccc21 | 0.089 µM | 0.71 µM | –
3 | COc1ccc(C(=O)n2c3ccccc3c(=O)c3ccccc32)cc1OC | > 10 µM | > 10 µM | –
4 | COc1cccc(N2CCN(C(=O)n3c4ccccc4c(=O)c4ccccc43)CC2)c1 | 0.026 µM | 0.33 µM | inhibition [3]: Active; Activity (K562 [4]): Active; Activity (K562 [5]): Dose-dependent effect; GI50 (SK-N-AS): 0.0013 µM; GI50 at 72 h [6]: 0.0014 µM; GI50 (BXPC-3): 0.0019 µM; GI50 (MG-63): 0.002 µM; GI50 (HT-1080): 0.0021 µM; GI50 5637: 0.0021 µM; GI50 (HT-29): 0.0021 µM; GI50 (PANC-1): 0.0021 µM; GI50 [7]: 0.0298 µM; GI50 (Ramos): 0.018 µM; GI50 (DU-145): 0.0179 µM; GI50 (L-363): 0.0148 µM; GI50 (MV4-11): 0.0135 µM; GI50 (NCI-H460): 0.0132 µM; GI50 (SNB-75): 0.0124 µM; GI50 (Ca-Ski): 0.0123 µM; GI50 at 72 h [8]: > 10 µM
5 | Nc1cccc(N2CCN(C(=O)n3c4ccccc4c(=O)c4ccccc43)CC2)c1 | 0.9 µM | 1.3 µM | –
6 | COc1ccc(C(=O)n2c3ccccc3c(=O)c3cc(OC)ccc32)cc1 | 3.9 µM | 1.4 µM | –
7 | COc1cccc(N2CCN(C(=O)n3c4ccc(C#N)cc4c(=O)c4cc(OC)ccc43)CC2)c1 | > 10 µM | > 10 µM | –
8 | Nc1ccc(N2CCN(C(=O)n3c4ccccc4c(=O)c4ccccc43)CC2)cc1 | > 10 µM | > 10 µM | –
9 | O=C(N1CCN(c2ccc([N+](=O)[O-])cc2)CC1)n1c2ccccc2c(=O)c2ccccc21 | > 10 µM | > 10 µM | –
10 | N#Cc1cccc(N2CCN(C(=O)n3c4ccccc4c(=O)c4ccccc43)CC2)c1 | 0.045 µM | 0.52 µM | –
11 | COc1ccc(OC)c(N2CCN(C(=O)n3c4ccccc4c(=O)c4ccccc43)CC2)c1 | 0.06 µM | 0.44 µM | –
12 | COc1ccc(C(=O)n2c3ccccc3c(=O)c3ccccc32)cc1 | 1.3 µM | 1.6 µM | inhibition [9]: 100%; Activity (K562 [5]): Dose-dependent effect; Activity (K562 [10]): Active
13 | COc1ccccc1N1CCN(C(=O)n2c3ccccc3c(=O)c3ccccc32)CC1 | 0.055 µM | 0.53 µM | –
14 | COc1ccc2c(c1)c(=O)c1ccccc1n2C(=O)N1CCN(c2ccccc2OC)CC1 | 1.1 µM | 3.5 µM | –
15 | O=C(N1CCN(c2cccc([N+](=O)[O-])c2)CC1)n1c2ccccc2c(=O)c2ccccc21 | 0.2 µM | 0.56 µM | –
16 | COc1cccc(N2CCN(C(=O)n3c4ccccc4c(=O)c4cc(C#N)ccc43)CC2)c1 | 0.19 µM | – | –
17 | COc1ccccc1N1CCN(C(=O)n2c3ccccc3c(=O)c3cnccc32)CC1 | 0.67 µM | 3.9 µM | –
18 | CC[C@]1(O)C[C@H]2CN(CCc3c([nH]c4ccccc34)[C@@](C(=O)OC)(c3cc4c(cc3OC)N(C)[C@H]3[C@@](O)(C(=O)OC)[C@H](OC(C)=O)[C@]5(CC)C=CCN6CC[C@]43[C@@H]65)C2)C1 | 0.012 µM | 0.13 µM | –
19 | O=C(c1ccccc1)n1c2ccccc2c(=O)c2ccccc21 | > 10 µM | > 10 µM | –
20 | COc1ccc(C(=O)n2c3ccccc3c(=O)c3ccccc32)cc1O | 1.3 µM | 0.68 µM | –
21 | COc1ccccc1N1CCN(C(=O)n2c3ccccc3c(=O)c3cc(C#N)ccc32)CC1 | 0.83 µM | 3.4 µM | –
22 | COc1cccc(N2CCN(C(=O)n3c4ccccc4c(=O)c4cccnc43)CC2)c1 | 0.032 µM | 0.45 µM | –

Row | Compound | IC50 (K562 [1]) | IC50 [2] | also measured
23 | COc1ccc(C(=O)n2c3ccccc3c(=O)c3cc(C#N)ccc32)cc1 | 1.3 µM | 1.7 µM | –
24 | O=C(N1CCN(c2ccccc2)CC1)n1c2ccccc2c(=O)c2ccccc21 | 0.39 µM | 0.9 µM | –
25 | COc1cc(N2CCN(C(=O)n3c4ccccc4c(=O)c4ccccc43)CC2)cc(OC)c1OC | > 10 µM | > 10 µM | –
26 | O=C(N1CCN(c2cccc(Br)c2)CC1)n1c2ccccc2c(=O)c2ccccc21 | 0.039 µM | 0.69 µM | –
27 | COc1cccc(N2CCN(C(=O)n3c4ccccc4c(=O)c4cc(OC)ccc43)CC2)c1 | 0.33 µM | 0.82 µM | –
28 | COc1cc2c(c(OC)c1OC)-c1ccc(OC)c(=O)cc1[C@@H](NC(C)=O)CC2 [COLCHICINE] | 0.013 µM | – | Activity (K562 [11]): Active
29 | COC(=O)Nc1nc2cc(C(=O)c3cccs3)ccc2[nH]1 [NOCODAZOLE] | 0.22 µM | 0.76 µM | –
30 | O=C(N1CCN(c2ccccc2Cl)CC1)n1c2ccccc2c(=O)c2ccccc21 | 4.8 µM | 7.1 µM | –
31 | COc1cccc(N2CCN(C(=O)n3c4ccccc4c(=O)c4cnccc43)CC2)c1 | 0.23 µM | 0.72 µM | –
32 | O=C(N1CCN(c2cccnc2)CC1)n1c2ccccc2c(=O)c2ccccc21 | 0.62 µM | 2.9 µM | –
33 | O=C(N1CCN(c2ccc(Cl)cc2)CC1)n1c2ccccc2c(=O)c2ccccc21 | 6.1 µM | > 10 µM | –
34 | COc1ccccc1N1CCN(C(=O)n2c3ccccc3c(=O)c3cc(N)ccc32)CC1 | 1.3 µM | 3.1 µM | –
35 | COc1ccccc1N1CCN(C(=O)n2c3ccccc3c(=O)c3cc([N+](=O)[O-])ccc32)CC1 | > 10 µM | > 10 µM | –
36 | COc1cccc(N2CCN(C(=O)n3c4ccccc4c(=O)c4cc(N)ccc43)CC2)c1 | 0.44 µM | 1.25 µM | –
37 | COc1ccc(N2CCN(C(=O)n3c4ccccc4c(=O)c4ccccc43)CC2)cc1 | > 10 µM | > 10 µM | –
38 | COc1ccc2c(c1)c(=O)c1cc(C#N)ccc1n2C(=O)N1CCN(c2ccccc2OC)CC1 | > 10 µM | > 10 µM | –
39 | COc1ccccc1C(=O)n1c2ccccc2c(=O)c2ccccc21 | 3.9 µM | 5.5 µM | –
40 | COc1ccc(C(=O)n2c3ccccc3c(=O)c3ccccc32)cc1OCc1ccccc1 | > 10 µM | > 10 µM | –
41 | COc1ccccc1N1CCN(C(=O)n2c3ccccc3c(=O)c3cccnc32)CC1 | 0.19 µM | 1.34 µM | –
42 | COc1ccc(N2CCN(C(=O)n3c4ccccc4c(=O)c4ccccc43)CC2)c(OC)c1 | 3 µM | 4.7 µM | –
43 | COc1cccc(N2CCN(C(=O)n3c4ccccc4c(=O)c4cc([N+](=O)[O-])ccc43)CC2)c1 | > 10 µM | 4.2 µM | –
44 | O=C(N1CCN(c2cccc(Cl)c2)CC1)n1c2ccccc2c(=O)c2ccccc21 | 0.038 µM | 0.6 µM | –
